Columns and labels:
[1] = system: preintegration complexes; experiment: Circularization mediated by partially purified preintegration complexes; type: biochemical, HIV-1; conditions: for circular DNA formed by preintegration complexes: 37° C., 45 min
Procedure: Viral preintegration complexes were partially purified from cytoplasmic extracts by Sephacryl S400 gel filtration chromatography. Cytoplasmic extracts (0.8 ml) were loaded onto a 22-ml Sephacryl S400 (Pharmacia) column, 28 cm in height, equilibrated in buffer K containing 0.5% Triton X-100 at 4° C. Fractions (0.5 ml) were collected at a flow rate of approximately 0.2 ml/min.
The linear viral DNA present in cytoplasmic extracts is a part of the nucleoprotein preintegration complex that can be separated from the bulk of cellular proteins by gel filtration chromatography [Farnet and Haseltine, J. Virol., 65: 1910-1915 (1991)]. Preintegration complexes were partially purified by Sephacryl S400 column chromatography and tested for the ability to mediate the circularization of viral DNA. Cytoplasmic extracts (1 ml, vol) were fractionated by Sephacryl S-400 gel filtration chromatography as previously described. The void volume fractions of the column, containing the peak of viral DNA, were pooled (total volume, 1.5 ml) and incubated as follows with the results shown in FIG. 20. Lane 1: column fractions were incubated at 37° C. for 45 minutes; lane 2: linear .phi.X174 DNA was added to column fractions to a final concentrations of 650 ng/ml and incubated at 37° C. for 45 minutes; lane 3: ATPγS was added to column fractions and incubated at 37° C. for 45 minutes; lane 4: same as lane 3, except that an equal volume of cytoplasmic extract from uninfected SupT1 cells was added prior to incubation; lane 5: ATP was added to column fractions to a final concentration of 1 mM and incubated at 37° C. for 45 minutes; lane 6: same as lane 5, except that an equal volume of cytoplasmic extract from uninfected SupT1 cells was added prior to incubation. […] Lane 1: products of the reaction shown in FIG. 20, lane 4, digested with SalI and PstI; lane 2: products of the reaction shown in FIG. 20, lane 5, digested with SalI and PstI; lane 3: products of the reaction shown in FIG. 20, lane 6, digested with SalI and PstI. […] The formation of all types of circular produts was dependent upon the addition of ATP, as viral DNA in column fractions remained linear during incubation at 37° C. in the absence of added ATP (FIG. 20, lane 1), regardless of the addition of uninfected SupT1 cell extracts.

[2] = system: linear viral DNA (circularization); type: biochemical, HIV-1
Procedure: The chronically HIV-1 infected Molt IIIB human T cell line (HTLV IIIB virus strain) was the source of virus for cell-free infections. This human T cell line constitutively produces a low level of the HTLV-111B strain of HIV-1. Culture supernatant containing a high concentration of virus was prepared by incubating 300×10^6 Molt IIIB cells in 50 ml fresh RPMI 1640 medium containing 20% fetal calf serum and 10 ng of phorbol 12-myristate 13-acetate per ml for 20-24 hours. […] Cytoplasmic extracts (3 ml) were prepared 4-4.5 hours post-infection, by a modification of the procedure of Brown et al., Cell 49: 342-356 (1987).
At specified times after infection, cells were washed twice with buffer K (20 mM Hepes, pH 7.4, 150 mM KCl, 5 mM MgCl2, 1 mM dithiothreitol, […]) and then lysed at a concentration of 33×10^6 cells per ml in the same buffer containing 0.025% digitonin or 0.025% Triton X-100. Cells were extracted for 10 minutes at room temperature, and the lysate was centrifuged at 1000×g for 3 minutes, and is referred to as "cytoplasmic extract". Cytoplasmic extract was the source of viral DNA for analyses in the assays described below. The pellet from the initial low-speed centrifugation contained cell debris and intact nuclei and is called the "nuclear pellet". Cell extracts from uninfected SupT1 cells were prepared in the same manner.
Viral DNA present in cytoplasmic extracts was deproteinated by incubation with proteinase K (1 mg/ml)/10 mM EDTA/0.5% SDS for 1 hour at 55° C. Samples were extracted successively with phenol/chloroform [1:1 (vol/vol)] and chloroform. DNA was ethanol-precipitated, washed with 70% ethanol, resuspended in 10 mM Tris.HCI (pH 7.4), and treated with RNase A (20 μpg/ml)for 1 hour at […]. before analysis by agarose gel electrophoresis and Southern blotting.
DNA samples were layered on 0.8% agarose gels and electrophoresed at 1 V/cm for 15 hour in Tris/acetate/EDTA buffer. After electrophoresis, DNA was blotted by capillary action onto nitrocellulose (0.45 μm, Schleicher & Schuell).
Cell extracts were prepared from cells four to five hours after infection with HIV-1, using the above-described methods to yield fully functional viral preintegration complexes. […] In all cases, a HIV-1 LTR-containing DNA fragment was used as a hybridization probe. Therefore, only LTR-containing DNA fragments are detected. […] Lane 5: Unintegrated viral DNA prepared by Hirt extraction of SupT1 cells infected 24 hours earlier with concentrated HIV-1. […] Viral DNA was purified from extracts incubated with 1 mM ATP for 15 minutes (lanes 1 and 4), with 1 mM ATP for 45 minutes (lanes 3 and 6), or with 1 mM ATPγS for 45 minutes (lanes 2 and 5). Lanes 1-3: uncut viral DNA; lanes 4-6: viral DNA was cut with SalI prior to electrophorosis. Lane 7: linear viral DNA, prepared from untreated extracts was digested with SalI prior to electrophorosis. Lane 8: unintegrated viral DNA prepared by Hirt extraction of infected cells, as described with respect to FIG. 14, digested with SalI prior to electrophoresis. […] Lanes 1-3. Viral DNA prepared from extracts treated with 1 mM ATP for 15 minutes, 30 minutes and 45 minutes, respectively. Lane 4: Viral DNA prepared from extract treated with 1 mM ATPγS for 45 minutes. Lanes 5-7: products of reactions shown in lanes 1-3, respectively, digested with SalI and PstI prior to electrophoresis. Lane 8: SalI, PstI digestion of viral DNA prepared from extract treated with 1 mM ATP for 90 minutes. Lane 9: SalI, PstI digestion of reaction products shown in lane 4. Lane 10: SalI, PstI digestion of unintegrated viral DNA prepared by Hirt extraction of infected cells.

Compound	1-LTR circle formation by preintegration complexes ([1]; 1 mM ATP, plus cytoplasmic extract from uninfected SupT1 cells)	2-LTR junction fragment from preintegration complexes ([1]; 1 mM ATP, plus uninfected SupT1 cell extract)	circular DNA formed by preintegration complexes ([1]; 1 mM, column fractions)	formation of circular viral DNA species ([2]; 1 mM, 37° C., 45 min, no target DNA)	1-LTR circle formation ([2]; 5 mM ATP)	formation of 2-LTR circles ([2]; 5 mM ATP)	ATP concentration of peak 1-LTR circle formation ([2]; 37° C., 45 or 90 min)	optimal ATP concentration for formation of 2-LTR circles ([2]; 37° C., 45 or 90 min)	1-LTR [ATP] optimum ([2]; table)	Autointegration [ATP] optimum ([2]; table)	circular DNA formed by preintegration complexes ([1]; in presence and absence of uninfected cell extracts)	induction of 1-LTR circular form ([2]; 1 mM, 37° C., 45 min)	induction of 2-LTR circles ([2]; 1 mM, 37° C., 45 min)	1-LTR circles (restriction analysis) ([2]; 1 mM, 45 min)	origin of 2-LTR circles (SalI/PstI digestion) ([2]; 1 mM, 45 min)	simple 2-LTR circles (SalI/PstI digestion) ([2]; 1 mM, 45 min)	type of circular viral DNA formed ([2]; 1 mM, 45 min, restriction enzyme analysis)
Nc1ncnc2c1ncn2[C@@H]1O[C@H](COP(=O)(O)OP(=O)(O)OP(=O)(O)O)[C@@H](O)[C@H]1O [ATP, adenosine triphosphate]	restored the ability to form 1-LTR circles	a small amount of new 2-LTR junction fragment was also detected	formation of only the 2-LTR circular DNA form	formation of two viral DNA species that migrated more slowly than the linear form of viral DNA	considerable	completely inhibited	2 mM	1 mM	2 mM	1 mM							
Nc1ncnc2c1ncn2[C@@H]1O[C@H](COP(=O)(O)OP(=O)(O)OP(O)(O)=S)[C@@H](O)[C@H]1O [ATPγS]											exclusive formation of autointegration 2-LTR circles	unable to induce detectable amounts of the 1-LTR circular forms	induced the formation of 2-LTR circles	no detectable 1-LTR circles	entirely the products of autointegration	absence of simple 2-LTR circles among the reaction products	exclusively of the 2-LTR type

— patent US5759768A, “Assays for factors affecting circularization of DNA, assays for factors affecting DNA integration, factors, and uses thereof” (priority 1995, dated 1998)
